Test results published in patent US5760230A, “4, 4'-bridged bis-2, 4-diaminoquinazolines” (Bayer Aktiengesellschaft, priority 1996, dated 1998).

Columns and labels:
[1] = molecular target: apamine binding sites (bovine cerebral membrane, hippocampus); experiment: Binding of ^125 I-apamine to bovine cerebral membrane; details: 30 pM ^125 I-apamine, calf hippocampus membranes, pH 7.4, 60 min on ice
Procedure: The compounds according to the invention are ligands for apamine-sensitive potassium channels. This can be shown by studying the affinity for apamine binding sites, e.g. in bovine cerebral membranes.
1) Binding of ^125 I-apamine to bovine cerebral membrane
Calf brains were obtained from the local abattoir. The hippocampus was prepared on ice and a membrane suspension was made up by homogenization twice in buffer (100 mM Tris-HCl, KCl 5 mM, pH 7.4) and centrifugation at 43,000×g. In a total volume of 500 μl, the incubation mixture contained 200 μg of membrane protein, 30 pM ^125 I-apamine and test substances in the concentration range 1×10^-9 to 1×10^-4 M. The non-specific binding of ^125 I-apamine was determined in the presence of 1×10^-7 M unlabelled apamine.
After preincubation for 30 min at room temperature (test substances and membrane homogenate), the samples were placed on ice for 10 min before the radioligand was added. The main incubation time was 60 min on ice. When the reaction time had elapsed, an excess of ice-cooled incubation buffer was added to each sample and the mixture was filtered with suction through cellulose acetate/nitrate membrane filters. The amount of bound ^125 I-apamine was measured with a gamma counter.

[2] = test system: potassium channels (PC12 cells); experiment: Non-radioactive Rb^+ efflux assay for the identification of potassium channel modulators in PC12 cells; format: cell-based; details: Rattus norvegicus, PC-12, 10 min, test concentration of 10 μM, 50 mM KCl stimulation
Procedure: 2) Non-radioactive Rb^+ efflux assay for the identification of potassium channel modulators
The potassium in PC12 cells is exchanged with rubidium, which is not present in the cells. This exchange is performed by incubating the cells over a period of 4 h in a physiological buffer containing 5.4 mM RbCl without KCl. This rubidium subsequently serves as a tracer for potassium.
The cells laden with Rb^+ in this way are washed three times and then stimulated by depolarization with 50 mM KCl to open potassium channels (10 min), causing Rb^+ to flow out of the cells into the supernatant according to the concentration gradient.
The rubidium contents in the cell supernatant and in the residual cells after they have been lysed with 1% Triton X-100 are then determined by means of atomic absorption spectroscopy. The relative proportion of rubidium in the cell supernatant (=Rb^+ efflux) is used as a measure of the potassium channel activity.
The effect of substances on the channel activity is measured by co-incubating, the test substance over the ten-minute stimulation period and determining its effect on the Rb^+ efflux in the manner described above.

SMILES: CCN(CC)c1nc(NCCCCCNc2nc(N(CC)CC)nc3ccccc23)c2ccccc2n1 [Example 2]
- Ki [1]: 8 nM

SMILES: CCN(CC)c1nc(NCCCNc2nc(N(CC)CC)nc3ccccc23)c2ccccc2n1 [Example 3]
- inhibition at 10 µM [2]: 81%

SMILES: CCN(CC)c1nc(NCC2CCCC(CNc3nc(N(CC)CC)nc4ccccc34)C2)c2ccccc2n1 (mixture of isomers) [Example 1, 1,3-Bis-[(2-diethylamino-4-quinazolyl)-aminomethyl]-cyclohexane (cis/trans isomeric mixture)]
- inhibition at 10 µM [2]: 80%
- Ki [1]: 160 nM
